Results on twelve compounds are retold here after PubChem BioAssay AID1918955 (Molecular Pharmacology Branch, DTP, NCI, 2023).

This test has as its system NCI/ADR-RES complex spheroid viability. The test is described as follows: Anticancer human tumor NCI/ADR-RES cell line growth inhibition.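 For all read-outs here: spheroids exposed to compounds for 7 days.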 The following applies: for viability, T/C: stronger effect = lower value. The text has this: Multicellular complex tumor spheroid response to LSD1 Inhibitor Iadademstat in combination with a variety of drugs and investigational agents in selected tumor cell lines
The current study was undertaken to assess response to LSD1 inhibitors in combination with standard-of-care drugs and investigational agents in solid tumor complex spheroid models as well as in the K-562 leukemia. Complex spheroids include a stromal component modeled by human endothelial cells (HUVEC) and fibroblasts modeled by human mesenchymal stem cells (MSCs). The concentration ranges selected for each drug and investigational agent were based upon clinically achievable concentrations if the clinical Cmax of the agent was known.
Compounds. The drugs and investigational agents used in this study are listed on Table 1. All of the agents used, including staurosporine (NSC755774) and gemcitabine (NSC613327), were obtained from the Developmental Therapeutics Program, NCI. FDA-approved anticancer drugs are available from the NCI at http://dtp.nci.nih.gov/branches/dscb/oncology_drugset_explanation.html. Drugs and investigational agents were >95% pure by proton nuclear magnetic resonance (NMR) and liquid chromatography/mass spectrometry (LC/MS). Stock solutions were prepared at 400x in DMSO, stored at -70 degrees C, and diluted in fresh medium prior to their use. The final concentration of DMSO in cell culture wells never exceeded 0.25% (v/v). The FDA-approved anticancer drug set is available from the Developmental Therapeutics Program at https://dtp.cancer.gov/organization/dscb/obtaining/available_plates.htm. All drugs and investigational agents were tested over a range starting from a high concentration at or near the clinical Cmax and decreasing in half-log increments. If the clinical Cmax for an agent had not been determined, the highest concentration tested was 10 microM.
Cell Lines. The patient-derived cancer cell (PDC) lines: 292921-168-R-J2-PDC, K24384-001-R-PDC, and 521955-158-R2-J5-PDC pancreatic carcinomas, 556581-035-R-J1 ovarian carcinoma, 324938-238-R-J1-PDC, 855422-203-R-J1-PDC and 883617-216-R-J1-PDC urothelial bladder carcinomas, 743489-274-T-PDC renal cell carcinoma, 138582-R-J1 Merkel cell tumor, K60290-347-R-J1 and K57222-313-R-J1-PDC glioblastomas, 653999-131-R-J2-PDC, LG0703-F948-PDC, and 349418-098-R-PDC non-small cell lung carcinomas, 885512-296-R-J2-PDC, 171881-019-R-J1-PDC breast carcinomas and 186277-243-T-J2-PDC and 233499-124-R-J2-PDC colon carcinomas were obtained from the NCI Patient-Derived Models Repository (PDMR, https://pdmr.cancer.gov). The established cell lines NCI/ADR-RES (RRID:CVCL_14520 and OVCAR-5 (RRID:CVCL_1628) ovarian carcinomas, 786-O (RRID:CVCL_1051) and A498 (RRID:CVCL_A498) renal cell carcinoma, NCI-H211 (ATCC, cat. CRL-5824; RRID:CVCL_1529), NCI-H196 (ATCC, cat. CRL-5823, RRID:CVCL_1509), SW 1271 (ATCC, cat. CRL-2177, RRID:CVCL_1716) and NCI-H1876 (ATCC, cat. CRL-5902, RRID:CVCL_1503) small cell lung carcinomas, MDA-MB-231 (RRID:CVCL_0062) and MDA-MB-468 (RRID:CVCL_0419)breast carcinomas (10-12). Pooled donor human umbilical vein endothelial cells (HUVEC, Lonza, cat. CC-2519) and human mesenchymal stem cells (hMSC, Lonza, cat. PT-2501) were purchased from Lonza (Walkersville, MD).
Cell Culture. All cells were maintained in an incubator at 37 degrees C and 5% CO2 with 95% humidity. The PDC lines were cultured according to standard operating procedures established by the NCI PDMR (https://pdmr.cancer.gov). Briefly all PDCs were thawed and cultured in Matrigel-coated flasks prepared with a working solution of 1X Ham's F-12 nutrient mix, without supplementation (Invitrogen, Waltham, MA, cat. 11765054), 100 U/mL penicillin-streptomycin (Invitrogen, cat. 15140122), and 2.5% Matrigel (Corning Inc., Corning, NY, cat. 354248) for the first three passages. […]

pIC50: −log10 of the molar value. Several values for one entry are separate records, joined by “and”; a condition that tells them apart may be missing. Identical values can stand only once.

As to `CC(C)c1c(-c2ccccc2)nc2c(C#N)c[nH]n2c1=O`, the viability, T/C (in general, the ratio of treated to control) runs as follows: (compound 0.0316 µM) 103% and 102%; (compound 0.1 µM) 99.6% and 94.7%; (compound 0.316 µM) 96.5% and 96.3%; (compound 1 µM) 104%; (compound 3.16 µM) 98.6% and 93.1%; (compound 10 µM) 94.6% and 96.8%. Moreover, the pIC50 (usually the negative decadic logarithm of the IC50, by convention in mol/L) (curve of compound) is below 5.00.

Consider `CC1(C)CCC(CN2CCN(c3ccc(C(=O)NS(=O)(=O)c4ccc(NCC5CCOCC5)c([N+](=O)[O-])c4)c(Oc4cnc5[nH]ccc5c4)c3)CC2)=C(c2ccc(Cl)cc2)C1`, for which the viability, T/C is 99.8% and 108% (compound 0.0316 µM); 108% and 106% (compound 0.1 µM); 101% and 106% (compound 0.316 µM); 104% and 105% (compound 1 µM); 101% and 104% (compound 3.16 µM); 94.1% and 90% (compound 10 µM). Moreover, under “curve of compound”, the pIC50 is below 5.00.

Take `CC1COCCN1c1cc(C2(S(C)(=N)=O)CC2)nc(-c2ccnc3[nH]ccc23)n1` (configuration not stated): the viability, T/C was 101% and 106% (compound 0.0316 µM); 96% and 110% (compound 0.1 µM); 93.8% and 98.5% (compound 0.316 µM); 91.3% and 86.3% (compound 1 µM); 72% and 71.1% (compound 3.16 µM); 57.2% and 43.1% (compound 10 µM). The negative logarithm of the IC50 (pIC50) (curve of compound) is < 5.00 and 5.13.

In the case of `CCN(c1cc(-c2ccc(CN3CCOCC3)cc2)cc(C(=O)NCc2c(C)cc(C)[nH]c2=O)c1C)C1CCOCC1`, the viability, T/C (compound 0.00949 µM) is 99.6% and 106%; the viability, T/C (compound 0.03 µM) is 98.7% and 102%; the viability, T/C (compound 0.0949 µM) was 98.2% and 104%; the viability, T/C (compound 0.3 µM) is 99% and 97.8%; the viability, T/C (compound 0.949 µM) was 91.6% and 97.3%; the viability, T/C (compound 3 µM) was 86.3% and 88%. Besides, the pIC50 (curve of compound) was below 5.52.

Turning to `COc1cc(C2c3cc4c(cc3C(OC3OC5COC(C)OC5C(O)C3O)C3COC(=O)C23)OCO4)cc(OC)c1O` (configuration not stated), the viability, T/C by setting is: (compound 0.00949 µM) 96.8% and 107%; (compound 0.03 µM) 100% and 104%; (compound 0.0949 µM) 96.4% and 104%; (compound 0.3 µM) 95.8% and 105%; (compound 0.949 µM) 96.1% and 98.4%; (compound 3 µM) 93.1% and 90.2%. Besides, the pIC50 (curve of compound) is below 5.52.

As for `COc1ccc([C@@H](O)c2cc(-c3ncnc4cc(N5CCOCC5)ccc34)c(F)cc2Cl)nn1`, the viability, T/C is, setting by setting: (compound 0.0316 µM) 106%; (compound 0.1 µM) 99.9% and 99.3%; (compound 0.316 µM) 87.1% and 94.3%; (compound 1 µM) 77.2% and 72.6%; (compound 3.16 µM) 52.9% and 49.2%; (compound 10 µM) 28.3% and 28%. In addition, the negative-log IC50 (pIC50) (curve of compound) was 5.42 and 5.53.

As for `NC1CC1c1ccc(-c2cccc(O)c2)cc1` (configuration not stated), the viability, T/C is 99.3% and 104% (compound 0.1 µM); 105% [middle of 24 runs] (compound 0.316 µM); 99.4% [middle of 24 runs] (compound 1 µM); 97.5% [middle of 25 runs] (compound 3.16 µM); 86.9% [middle of 25 runs] (compound 10 µM). Moreover, where the note is “compound alone, run of 12/07/2021”, the pIC50 is below 5.00.

Consider `NC1CCC(NC2CC2c2ccccc2)CC1` (configuration not stated), for which the viability, T/C by setting is: (compound 0.1 µM) 104% [middle of 25 runs]; (compound 0.316 µM) 110% and 108% (2×); (compound 1 µM) 102% [middle of 24 runs]; (compound 3.16 µM) 99.8% [middle of 25 runs]; (compound 10 µM) 91.5% [middle of 23 runs]. For the same compound, the pIC50 (compound alone, run of 11/29/2021) is below 5.00.

With `NS(=O)(=O)OCC1CC(n2ccc3c(NC4CCc5ccccc54)ncnc32)CC1O` (configuration not stated), the viability, T/C is 94% and 94.6% (compound 0.00949 µM); 91% and 98.8% (compound 0.03 µM); 87.3% and 86.9% (compound 0.0949 µM); 72.3% and 74.8% (compound 0.3 µM); 35.7% and 45.3% (compound 0.949 µM); 14.5% and 17.2% (compound 3 µM). Besides, for the setting “curve of compound”, the pIC50 is 6.22 and 6.10.

Regarding `Nc1ccccc1NC(=O)c1ccc(CNC(=O)OCc2cccnc2)cc1`, the viability, T/C (compound 0.00949 µM) was 105% and 99.8%; the viability, T/C (compound 0.03 µM) was 98.3% and 100%; the viability, T/C (compound 0.0949 µM) is 88.4% and 94.4%; the viability, T/C (compound 0.3 µM) is 81.6% and 75.8%; the viability, T/C (compound 0.949 µM) is 58.7% and 49.3%; the viability, T/C (compound 3 µM) was 33.9% and 26.6%. The pIC50 (curve of compound) is 5.83 and 6.05.

As to `O=C(C=Cc1cccc(S(=O)(=O)Nc2ccccc2)c1)NO`, the viability, T/C (compound 0.00949 µM) is 95.3% and 96%; the viability, T/C (compound 0.03 µM) was 81.6% and 75.3%; the viability, T/C (compound 0.0949 µM) was 36.6% and 42%; the viability, T/C (compound 0.3 µM) was 16.7% and 17.2%; the viability, T/C (compound 0.949 µM) is 7.77% and 6.17%; the viability, T/C (compound 3 µM) is 2.68% and 1.54%. Under “curve of compound”, the pIC50 was 7.16 and 7.14.

Consider `O=C(c1cc(Cc2n[nH]c(=O)c3ccccc23)ccc1F)N1CCN(C(=O)C2CC2)CC1`, for which the viability, T/C (compound 0.0316 µM) is 102%; the viability, T/C (compound 0.1 µM) was 102% and 99.6%; the viability, T/C (compound 0.316 µM) was 104% and 102%; the viability, T/C (compound 1 µM) was 105% and 97.3%; the viability, T/C (compound 3.16 µM) is 90.7% and 95.4%; the viability, T/C (compound 10 µM) is 89.6% and 85%. In addition, the pIC50 (curve of compound) is below 5.00.
